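Exposure lasted 48 hours, with cells grown in 96-well plates and compounds tested at five concentrations. GI50 = concentration required for 50% inhibition of growth. TGI denotes the concentration required for complete inhibition of growth.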
Legend:
Experiment in all cases: inhibition of tumour cell growth, NCI panel, 48 h
786-0 renal = test system: 786-0 renal
A498 renal = test system: A498 renal
A549 NSCLC = test system: A549 NSCLC
ACHN renal = test system: ACHN renal
CAKI-1 renal = test system: CAKI-1 renal
CCRF-CEM leukemia = test system: CCRF-CEM leukemia
COLO 205 colon = test system: COLO 205 colon
DLD-1 colon = test system: DLD-1 colon
DMS 114 small cell lung = test system: DMS 114 small cell lung
DMS 273 small cell lung = test system: DMS 273 small cell lung
EKVX NSCLC = test system: EKVX NSCLC
HCC-2998 colon = test system: HCC-2998 colon
HCT-116 colon = test system: HCT-116 colon
HCT-15 colon = test system: HCT-15 colon
HL-60(TB) leukemia = test system: HL-60(TB) leukemia
HOP-18 NSCLC = test system: HOP-18 NSCLC
HOP-62 NSCLC = test system: HOP-62 NSCLC
HOP-92 NSCLC = test system: HOP-92 NSCLC
HT29 colon = test system: HT29 colon
IGROV1 ovarian = test system: IGROV1 ovarian
K-562 leukemia = test system: K-562 leukemia
KM12 colon = test system: KM12 colon
KM20L2 colon = test system: KM20L2 colon
LOX IMVI melanoma = test system: LOX IMVI melanoma
LXFL 529 NSCLC = test system: LXFL 529 NSCLC
M14 melanoma = test system: M14 melanoma
M19-MEL melanoma = test system: M19-MEL melanoma
MALME-3M melanoma = test system: MALME-3M melanoma
MOLT-4 leukemia = test system: MOLT-4 leukemia
NCI-H226 lung = test system: NCI-H226 lung
NCI-H23 lung = test system: NCI-H23 lung
NCI-H460 lung = test system: NCI-H460 lung
NCI-H522 lung = test system: NCI-H522 lung
OVCAR-3 ovarian = test system: OVCAR-3 ovarian
OVCAR-4 ovarian = test system: OVCAR-4 ovarian
OVCAR-5 ovarian = test system: OVCAR-5 ovarian
OVCAR-8 ovarian = test system: OVCAR-8 ovarian
RPMI-8226 leukemia = test system: RPMI-8226 leukemia
SF-268 CNS = test system: SF-268 CNS
SF-295 CNS = test system: SF-295 CNS
SF-539 CNS = test system: SF-539 CNS
SK-MEL-2 melanoma = test system: SK-MEL-2 melanoma
SK-MEL-28 melanoma = test system: SK-MEL-28 melanoma
SK-MEL-5 melanoma = test system: SK-MEL-5 melanoma
SK-OV-3 ovarian = test system: SK-OV-3 ovarian
SN12C renal = test system: SN12C renal
SNB-19 CNS = test system: SNB-19 CNS
SNB-75 CNS = test system: SNB-75 CNS
SNB-78 CNS = test system: SNB-78 CNS
SR leukemia = test system: SR leukemia
SW-620 colon = test system: SW-620 colon
TK-10 renal = test system: TK-10 renal
U251 CNS = test system: U251 CNS
UACC-257 melanoma = test system: UACC-257 melanoma
UACC-62 melanoma = test system: UACC-62 melanoma
UO-31 renal = test system: UO-31 renal
RXF 393 renal = test system: RXF 393 renal
XF 498 CNS = test system: XF 498 CNS

Cn1cc2ccccc2c1-c1nc(F)nc(Oc2ccc3c(c2)CC[C@@H]2C3CC[C@@]3(C)C2CC[C@@H]3O)n1 (stereo not given in full)
TGI (786-0 renal): 26.4 µM | TGI (A498 renal): 36 µM | TGI (A549 NSCLC): 54.4 µM | TGI (ACHN renal): 35.4 µM | TGI (CAKI-1 renal): 16.3 µM | TGI (CCRF-CEM leukemia): > 100 µM | TGI (COLO 205 colon): 41.8 µM | TGI (DLD-1 colon): 14.6 µM | GI50 (DMS 114 small cell lung): 6.42 µM | TGI (DMS 114 small cell lung): 22 µM | TGI (DMS 273 small cell lung): > 58.5 µM | TGI (EKVX NSCLC): 37.3 µM | TGI (HCC-2998 colon): 33.5 µM | TGI (HCT-116 colon): 36 µM | TGI (HCT-15 colon): 12.2 µM | TGI (HL-60(TB) leukemia): 21 µM | TGI (HOP-18 NSCLC): 34.2 µM | TGI (HOP-62 NSCLC): 27.9 µM | TGI (HOP-92 NSCLC): 14.7 µM | TGI (HT29 colon): 35.8 µM | TGI (IGROV1 ovarian): 15.3 µM | TGI (K-562 leukemia): > 87 µM | TGI (KM12 colon): 19.5 µM | TGI (KM20L2 colon): 36.6 µM | TGI (LOX IMVI melanoma): 32.6 µM | TGI (LXFL 529 NSCLC): 8.89 µM | TGI (M14 melanoma): 20.4 µM | TGI (M19-MEL melanoma): > 56.5 µM | TGI (MALME-3M melanoma): 35.5 µM | TGI (MOLT-4 leukemia): > 56.9 µM | TGI (NCI-H226 lung): 38.4 µM | TGI (NCI-H23 lung): 27.6 µM | TGI (NCI-H460 lung): 38.1 µM | TGI (NCI-H522 lung): 12.7 µM | TGI (OVCAR-3 ovarian): 21.8 µM | TGI (OVCAR-4 ovarian): 16.4 µM | TGI (OVCAR-5 ovarian): 33.9 µM | TGI (OVCAR-8 ovarian): 19.7 µM | TGI (RPMI-8226 leukemia): 21.7 µM | TGI (SF-268 CNS): 28.7 µM | TGI (SF-295 CNS): 63.5 µM | TGI (SF-539 CNS): 29.1 µM | TGI (SK-MEL-2 melanoma): 10.2 µM | TGI (SK-MEL-28 melanoma): 27.1 µM | TGI (SK-MEL-5 melanoma): 35.6 µM | TGI (SK-OV-3 ovarian): 43.7 µM | TGI (SN12C renal): 28.1 µM | TGI (SNB-19 CNS): 35.5 µM | TGI (SNB-75 CNS): 39.2 µM | TGI (SNB-78 CNS): > 61.4 µM | TGI (SR leukemia): 21 µM | TGI (SW-620 colon): 17.6 µM | TGI (TK-10 renal): 18.3 µM | TGI (U251 CNS): 13.2 µM | TGI (UACC-257 melanoma): 45.8 µM | TGI (UACC-62 melanoma): 32.7 µM | TGI (UO-31 renal): 50.9 µM

COc1cc(OC)c(C#N)c(OC)c1C
TGI (786-0 renal): > 100 µM | TGI (A498 renal): > 100 µM | TGI (A549 NSCLC): > 100 µM | TGI (ACHN renal): > 100 µM | TGI (CAKI-1 renal): > 100 µM | TGI (CCRF-CEM leukemia): > 100 µM | TGI (DLD-1 colon): > 100 µM | TGI (DMS 114 small cell lung): > 100 µM | TGI (DMS 273 small cell lung): > 100 µM | TGI (EKVX NSCLC): > 100 µM | TGI (HL-60(TB) leukemia): > 100 µM | TGI (HOP-62 NSCLC): > 100 µM | TGI (HOP-92 NSCLC): > 100 µM | TGI (HT29 colon): > 100 µM | TGI (K-562 leukemia): > 100 µM | TGI (KM12 colon): > 100 µM | TGI (KM20L2 colon): > 100 µM | TGI (LOX IMVI melanoma): > 100 µM | TGI (LXFL 529 NSCLC): > 100 µM | TGI (M19-MEL melanoma): > 100 µM | TGI (MALME-3M melanoma): > 100 µM | TGI (MOLT-4 leukemia): > 100 µM | TGI (NCI-H226 lung): > 100 µM | TGI (NCI-H23 lung): > 100 µM | TGI (NCI-H460 lung): > 100 µM | TGI (OVCAR-4 ovarian): > 100 µM | TGI (OVCAR-5 ovarian): > 100 µM | TGI (OVCAR-8 ovarian): > 100 µM | TGI (RXF 393 renal): > 100 µM | TGI (SF-268 CNS): > 100 µM | TGI (SF-295 CNS): > 100 µM | TGI (SF-539 CNS): > 100 µM | TGI (SK-MEL-2 melanoma): > 100 µM | TGI (SK-MEL-28 melanoma): > 100 µM | TGI (SK-MEL-5 melanoma): > 100 µM | TGI (SK-OV-3 ovarian): > 100 µM | TGI (SN12C renal): > 100 µM | TGI (SNB-19 CNS): > 100 µM | TGI (SNB-78 CNS): > 100 µM | TGI (SR leukemia): > 100 µM | TGI (SW-620 colon): > 100 µM | TGI (TK-10 renal): > 100 µM | TGI (U251 CNS): > 100 µM | TGI (UACC-257 melanoma): > 100 µM | TGI (UACC-62 melanoma): > 100 µM | TGI (UO-31 renal): > 100 µM | TGI (XF 498 CNS): > 100 µM

O=C1C2=C(CCCC2)Nc2cccc3ncn1c23
TGI (786-0 renal): > 100 µM | TGI (A498 renal): > 100 µM | TGI (A549 NSCLC): > 100 µM | TGI (ACHN renal): > 100 µM | TGI (CCRF-CEM leukemia): > 100 µM | TGI (COLO 205 colon): > 100 µM | TGI (DLD-1 colon): > 100 µM | TGI (DMS 114 small cell lung): > 100 µM | TGI (DMS 273 small cell lung): > 100 µM | TGI (EKVX NSCLC): > 100 µM | TGI (HCC-2998 colon): > 100 µM | TGI (HCT-116 colon): > 100 µM | TGI (HCT-15 colon): > 100 µM | TGI (HL-60(TB) leukemia): > 100 µM | TGI (HOP-18 NSCLC): > 100 µM | TGI (HOP-62 NSCLC): > 100 µM | TGI (HOP-92 NSCLC): > 100 µM | TGI (K-562 leukemia): > 100 µM | TGI (KM12 colon): > 100 µM | TGI (KM20L2 colon): > 100 µM | TGI (LOX IMVI melanoma): > 100 µM | TGI (LXFL 529 NSCLC): > 100 µM | TGI (M14 melanoma): > 100 µM | TGI (M19-MEL melanoma): > 100 µM | TGI (MALME-3M melanoma): > 100 µM | TGI (MOLT-4 leukemia): > 100 µM | TGI (NCI-H23 lung): > 100 µM | TGI (NCI-H460 lung): > 100 µM | TGI (NCI-H522 lung): > 100 µM | TGI (OVCAR-3 ovarian): > 100 µM | TGI (OVCAR-5 ovarian): > 100 µM | TGI (OVCAR-8 ovarian): > 100 µM | TGI (RPMI-8226 leukemia): > 100 µM | TGI (RXF 393 renal): > 100 µM | TGI (SF-268 CNS): > 100 µM | TGI (SF-295 CNS): > 100 µM | TGI (SF-539 CNS): > 100 µM | TGI (SK-MEL-2 melanoma): > 100 µM | TGI (SK-MEL-28 melanoma): > 100 µM | TGI (SK-MEL-5 melanoma): > 100 µM | TGI (SK-OV-3 ovarian): > 100 µM | TGI (SN12C renal): > 100 µM | TGI (SNB-19 CNS): > 100 µM | TGI (SNB-78 CNS): > 100 µM | TGI (SR leukemia): > 100 µM | TGI (SW-620 colon): > 100 µM | TGI (TK-10 renal): > 100 µM | TGI (U251 CNS): > 100 µM | TGI (UACC-257 melanoma): > 100 µM | TGI (UACC-62 melanoma): > 100 µM | TGI (UO-31 renal): > 100 µM

Reference: PubChem BioAssay (NCI)
